Experimental data taken from patent US10765114B2, “4-amino-6-(pyridyl and 2-substitutedphenyl)-picolinates and 6-amino-2-(pyridyl and 2-substitutedphenyl)-pyrimidine-4-carboxylates and their use as herbicides” (Dow AgroSciences LLC, priority 2013, dated 2020).

Key:
Experiment in all cases: Post-Emergent Test I
Assay type in all cases: in vivo
Conditions in all cases: postemergence
[1] = test system: AMARE: redroot pigwseed (Amaranthus retroflexus)
Description: (§1) Post-Emergent Test I Seeds test species were obtained from commercial suppliers and planted into a 13 centimeter (cm) diameter-round pot containing soil-less media mix (Metro-Mix 360®, Sun Gro Horticulture). Postemergence treatments were planted 8-12 days prior to application and cultured in a greenhouse equipped with supplemental light sources to provide a 16 hour (h) photoperiod at 24-29° C. All pots were surface irrigated.
(§2) A weighted amount, determined by the highest rate to be tested, of each compound was dissolved in 1.3 mL acetone-dimethyl sulfoxide (DMSO; 97:3, volume per volume (v/v)) and diluted with 4.1 mL water-isopropanol-crop oil concentrate (78:20:2, v/v/v) containing 0.02% Triton X-155 to obtain concentrated stock solutions. Additional application rates were obtained by serial dilution of the high rate solution into a solution containing appropriate volume of 97:3 v/v mixture of acetone and DMSO and appropriate volume of an aqueous mixture of water, isopropyl alcohol, crop oil concentrate (78:20:2, v/v/v) containing 0.02% Triton X-155.
(§3) Formulated compounds were applied using a DeVilbiss® compressed air sprayer at 2-4 pounds per square inch (psi). Following treatment, pots were returned to the greenhouse for the duration of the experiment. All pots were sub-irrigated as need to provide optimum growing conditions. All pots were fertilized one time per week by subirrigating with Peters Peat-Lite Special® fertilizer (20-10-20).
(§4) All evaluations were made visually on a scale of 0 to 100 where 0 represents no activity and 100 represents complete plant death and presented as indicated in Table A. Visual assessments of plant injury were made based on growth reduction, discoloration, leaf deformity and necrosis

[2] = test system: AVEFA: wild oats (Avena fatua)
Description: as §1, §2, §3, §4

[3] = test system: ECHSS (ECHCG: barnyardgrass (Echinochloa crus-galli))
Description: as §1, §2, §3, §4

[4] = test system: HELAN: sunflower (Helianthus annuus)
Description: as §1, §2, §3, §4

[5] = test system: IPOSS (IPOHE: ivyleaf morningglory (Ipomoea hederecea))
Description: as §1, §2, §3, §4

[6] = test system: SETFA: giant foxtail (Setaria faberi)
Description: as §1, §2, §3, §4

Row | Structure (SMILES) | Visual Growth Reduction (%) 14 Days After Application, AMARE ([1]; 4 kg ai/ha) | Visual Growth Reduction (%) 14 Days After Application, AVEFA ([2]; 4 kg ai/ha) | Visual Growth Reduction (%) 14 Days After Application, ECHSS ([3]; 4 kg ai/ha) | Visual Growth Reduction (%) 14 Days After Application, HELAN ([4]; 4 kg ai/ha) | Visual Growth Reduction (%) 14 Days After Application, IPOSS ([5]; 4 kg ai/ha) | Visual Growth Reduction (%) After Application, SETFA ([6]; 4 kg ai/ha) | Visual Growth Reduction (%) 14 Days After Application, AMARE ([1]; 3.8 kg ai/ha) | Visual Growth Reduction (%) 14 Days After Application, AVEFA ([2]; 3.8 kg ai/ha) | Visual Growth Reduction (%) 14 Days After Application, ECHSS ([3]; 3.8 kg ai/ha) | Visual Growth Reduction (%) 14 Days After Application, HELAN ([4]; 3.8 kg ai/ha) | Visual Growth Reduction (%) 14 Days After Application, IPOSS ([5]; 3.8 kg ai/ha) | Visual Growth Reduction (%) After Application, SETFA ([6]; 3.8 kg ai/ha)
1 | COC(=O)c1nc(-c2ccc(C(F)(F)F)nc2)cc(N)c1Cl [Compound 4] | A (95-100) | B (85-94) | C (75-84) | A (95-100) | A (95-100) | A (95-100) | – | – | – | – | – | –
2 | COC(=O)c1nc(-c2ccc(Cl)nc2F)cc(N)c1Cl [Compound 17, methyl 4-amino-5,6′-dichloro-2′-fluoro-[2,3′-bipyridine]-6-carboxylate] | – | – | – | – | – | – | C (75-84) | F (30-44) | F (30-44) | A (95-100) | A (95-100) | B (85-94)
